Assay [1] concerns the target T1, IRAK4 (Homo sapiens (Human), UniProt Q9NWZ3). Nature of the assay: IRAK4 enzyme assay (mass spectrometry readout). The format is biochemical. The following applies: human recombinant IRAK4 0.2 nM, 3 mM ATP; geometric mean of at least 2 experiments. As for the experimental part:
Potency of IRAK4 Inhibitor Compounds in IRAK4 Enzyme Assay
The inhibitory activity of compounds against IRAK4 were determined in an enzymatic assay using mass spectrometry readout. Ten point half-log compound concentration response curves, with a top concentration of 1 μM or 10 μM, were generated from 10 mM stocks of compound solubilized in DMSO using an Echo 655 (Labcyte Inc) and added to 384 well assay plates (Greiner #781280). To the assay plates, 10 μL of human recombinant IRAK4 protein (Life Technologies #PV4002) diluted to a final concentration of 0.2 nM in assay buffer (50 mM Tris-HCl pH 7.4, 10 mM MgCl, 5 mM glutathione, 0.01% BSA, 3 mM ATP) was added. The enzyme was incubated with the compounds at room temperature for 15 minutes before a peptide substrate ([…], Innovagen custom synthesis, 10 mM in DMSO) was added to each well to a final concentration of 10 μM using an Echo 655 (Labcyte Inc). After two hours at room temperature, the reaction was stopped with 65 μL of 0.4% formic acid (Merck #33015). The unphosphorylated and phosphorylated peptide were measured by LC-MS/MS on a Waters TQ-S mass spectrometer. Peaks were integrated using the TargetLynx software and the ratios between phosphorylated and unphosphorylated peptides were calculated. Curves were fitted and compound potencies determined in Genedata Screener 19 (Genedata AG). IC50 values are the geometric mean of at least 2 experiments.

The target of assay [2] is T1, IRAK4. Description: IRAK4 phosphorylation cell assay (IL-1β-stimulated Karpas-299 cells). The format is cell-based. The settings on record: IRAK4 auto-phosphorylation (pIRAK4 Thr345/Ser346) in IL-1β-stimulated Karpas-299 cells; geometric mean of at least 2 experiments. As for the experimental part:
IRAK4 Phosphorylation Cell Assay
The activation of IRAK4 by TLR or IL-1R ligands leads to IRAK4 auto-phosphorylation, which can be prevented by IRAK4 kinase inhibitors. The effect of IRAK4 inhibitor compounds on IRAK4 auto-phosphorylation was assessed in IL-1β-stimulated Karpas-299 cells as a measurement of cellular potency. Karpas-299 cells were cultured in RPMI 1640 (Gibco 61870-010) containing 10% FBS (Gibco #10270). Cells were plated at 2×10^4 cells per well in poly-D-lysine coated 384 well plates (Corning #356663) to which compounds had been added at various concentrations (10 point half log dose response with a final top concentration of 30 μM) using an Echo 655 (Labcyte Inc). Cells were centrifuged (250 g, 4 mins), incubated at 37° C. for 1 h, then stimulated with 22.7 ng/mL recombinant IL-1β (R&D Systems, #201-LB-025) at 37° C. for 10 mins, followed by fixation in 4% paraformaldehyde for 20 mins and permeabilization in ice-cold 70% MeOH in PBS for 30 mins. Cells were washed twice with phosphate-buffered saline (PBS) on a BlueWasher (BlueCatBio) then blocked with PBS containing 10% FBS for 20 mins. Blocking solution was removed with a BlueWasher and cells were stained with anti-pIRAK4 (Thr345/Ser346) (CST, #11927, 1:400) in blocking buffer with 0.05% Tween-20 for 1 h, then washed twice with PBS containing 0.05% Tween-20 on a BlueWasher, followed by staining with a Alexa 647-conjugated secondary anti-rabbit IgG antibody (CST, #4414, 1:2,000) and Hoechst 33342 (Sigma, 1:2,000) in blocking buffer with 0.05% Tween-20 for 30 mins. Finally, the cells were washed twice with PBS containing 0.05% Tween-20 and imaged on an ImageXpress Micro (Molecular Devices) with a 10× air objective using the appropriate filters. Images were analysed in Columbus (PerkinElmer) and the fluorescence intensity per cell from the secondary antibody was quantified. The quantified data were analysed in Genedata Screener 19 (Genedata AG). […] IC50 values are the geometric mean of at least 2 experiments.

The next assay addresses human cKit kinase (Homo sapiens (Human), UniProt P10721). Description: cKit enzyme assay (LANCE, Eurofins CEREP). The format is biochemical. The following applies: human recombinant enzyme, 50 μM ATP; geometric mean of at least n=2, * = single experiment. As for the experimental part: Potency of IRAK4 Inhibitor Compounds in cKit Enzyme Assay
Evaluation of the effects of the IRAK4 inhibitor compounds on the activity of the human cKit kinase quantified by measuring the phosphorylation of the substrate Ulight-TK peptide using a human recombinant enzyme and the LANCE® detection method at Eurofins CEREP, catalog item 3070, SOP no 1C768: The test compound, reference compound or water (control) are mixed with the enzyme (0.38 ng) in a buffer containing 40 mM Hepes/Tris (pH 7.4), 0.8 mM EGTA/Tris, 8 mM MgCl2, 1.6 mM DTT and 0.008% Tween 20. Thereafter, the reaction is initiated by adding 100 nM of the substrate Ulight-TK peptide and 50 μM ATP, and the mixture is incubated for 30 min at room temperature. For control basal measurements, the enzyme is omitted from the reaction mixture. Following incubation, the reaction is stopped by adding 13 mM EDTA. After 5 min, the anti-phopho-PT66 antibody labeled with europium chelate is added. After 60 more min, the fluorescence transfer is measured at lex=337 nm, lem=620 nm and lem=665 nm using a microplate reader (Envision, Perkin Elmer). The enzyme activity is determined by dividing the signal measured at 665 nm by that measured at 620 nm (ratio). The results are expressed as a percent inhibition of the control enzyme activity. The standard inhibitory reference compound is staurosporine, which is tested in each experiment at several concentrations to obtain an inhibition curve from which its IC50 value is calculated.
Data presented are the geometric mean of at least n=2, or as denoted by an*are obtained from a single experiment. […] Kinase selectivity can be a key determinant of clinical utility as off target toxicity can be reduced or eliminated.
Background: Time-resolved FRET reads energy transfer from a long-lived donor to a nearby acceptor.

T1 sequence (Q9NWZ3 whole entry): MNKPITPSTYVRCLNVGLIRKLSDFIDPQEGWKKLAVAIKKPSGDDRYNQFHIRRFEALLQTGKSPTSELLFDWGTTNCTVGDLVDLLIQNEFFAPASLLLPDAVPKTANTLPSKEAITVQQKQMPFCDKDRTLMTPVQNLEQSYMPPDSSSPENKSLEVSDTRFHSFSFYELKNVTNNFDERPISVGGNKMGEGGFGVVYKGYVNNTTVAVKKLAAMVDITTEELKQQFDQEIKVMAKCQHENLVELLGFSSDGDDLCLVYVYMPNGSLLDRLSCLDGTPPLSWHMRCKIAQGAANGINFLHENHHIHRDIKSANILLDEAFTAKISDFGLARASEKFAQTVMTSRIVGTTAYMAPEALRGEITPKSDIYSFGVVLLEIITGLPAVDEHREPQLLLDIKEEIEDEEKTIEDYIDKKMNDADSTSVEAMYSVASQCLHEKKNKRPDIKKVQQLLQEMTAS
Chain of human cKit kinase (P10721 26-976): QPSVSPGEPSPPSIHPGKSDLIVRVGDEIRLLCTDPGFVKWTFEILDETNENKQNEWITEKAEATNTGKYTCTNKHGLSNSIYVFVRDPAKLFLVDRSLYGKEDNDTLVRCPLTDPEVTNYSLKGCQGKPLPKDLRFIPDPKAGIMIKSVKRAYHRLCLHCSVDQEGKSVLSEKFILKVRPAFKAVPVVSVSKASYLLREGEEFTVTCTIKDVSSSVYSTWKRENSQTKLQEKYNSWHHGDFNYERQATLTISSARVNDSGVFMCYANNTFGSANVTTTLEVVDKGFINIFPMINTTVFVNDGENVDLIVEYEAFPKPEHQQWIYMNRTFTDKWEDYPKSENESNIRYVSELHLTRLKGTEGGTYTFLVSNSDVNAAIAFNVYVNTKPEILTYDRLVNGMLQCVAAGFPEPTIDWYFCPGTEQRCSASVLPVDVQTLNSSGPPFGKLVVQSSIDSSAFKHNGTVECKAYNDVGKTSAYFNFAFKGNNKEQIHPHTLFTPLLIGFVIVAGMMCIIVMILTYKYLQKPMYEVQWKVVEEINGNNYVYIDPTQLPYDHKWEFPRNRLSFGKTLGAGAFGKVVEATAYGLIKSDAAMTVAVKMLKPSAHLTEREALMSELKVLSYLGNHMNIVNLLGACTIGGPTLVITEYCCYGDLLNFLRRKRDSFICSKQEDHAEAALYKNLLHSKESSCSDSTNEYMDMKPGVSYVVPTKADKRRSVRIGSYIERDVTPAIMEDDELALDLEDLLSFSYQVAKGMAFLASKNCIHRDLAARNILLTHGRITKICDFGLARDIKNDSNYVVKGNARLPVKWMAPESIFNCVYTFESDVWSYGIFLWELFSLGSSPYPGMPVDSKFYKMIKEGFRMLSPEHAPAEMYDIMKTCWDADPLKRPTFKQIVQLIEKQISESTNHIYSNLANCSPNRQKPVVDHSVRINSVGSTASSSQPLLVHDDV

In the case of `COc1cc2nn([C@H]3CC[C@H](N(C)C(=O)[C@@H](C)O)CC3)cc2cc1C(=O)Nc1cccn(C2COC2)c1=O` [Example 13, 2-((1R,4r)-4-((R)-2-Hydroxy-N-methylpropanamido)cyclohexyl)-6-methoxy-N-(1-(oxetan-3-yl)-2-oxo-1,2-dihydropyridin-3-yl)-2H-indazole-5-carboxamide], the IC50 – broadly, the concentration that inhibits the measured activity by half – at IRAK4 [1] was 0.7 nM; on IRAK4 [2] it was 30 nM; at human cKit kinase, > 50000 nM.

`COc1cc2nn([C@H]3CC[C@H](n4ccnc4C(C)O)CC3)cc2cc1C(=O)Nc1cccn(C)c1=O` (single isomer, unassigned) [Example 28, 2-((1r,4r)-4-(2-(1-hydroxyethyl)-1H-imidazol-1-yl)cyclohexyl)-6-methoxy-N-(1-methyl-2-oxo-1,2-dihydropyridin-3-yl)-2H-indazole-5-carboxamide]: the IC50 worked out at 0.5 nM on IRAK4 [1], 31 nM at IRAK4 [2] and 10600 nM on human cKit kinase.

Take `COc1cc2nn([C@@H]3CCC(N(C)C(C)=O)C[C@H]3C)cc2cc1C(=O)Nc1cccn(C)c1=O` (single isomer, unassigned) [Example 3]: the IC50 amounted to 0.7 nM on IRAK4 [1], 21 nM on IRAK4 [2] and 13700 nM on human cKit kinase.

For `COc1cc2nn([C@H]3CC[C@H](n4ccccc4=O)CC3)cc2cc1C(=O)Nc1cccn(C)c1=O` [Example 22, 6-Methoxy-N-(1-methyl-2-oxo-1,2-dihydropyridin-3-yl)-2-((1r,4r)-4-(2-oxopyridin-1(2H)-yl)cyclohexyl)-2H-indazole-5-carboxamide], the IC50 came out at 0.5 nM on IRAK4 [1], 26 nM against IRAK4 [2] and 26200 nM on human cKit kinase.

For `COc1cc2nn([C@H]3CC[C@H](N(C)C(C)=O)CC3)cc2cc1C(=O)Nc1cccn(C)c1=O` [Example 1, 6-Methoxy-N-(1-methyl-2-oxo-1,2-dihydropyridin-3-yl)-2-((1r,4r)-4-(N-methylacetamido)cyclohexyl)-2H-indazole-5-carboxamide], the IC50 was determined as 1.1 nM at IRAK4 [1], 30 nM on IRAK4 [2] and 13000 nM at human cKit kinase.

For `COc1cc2nn([C@H]3CC[C@H](c4nnco4)CC3)cc2cc1C(=O)Nc1cccn(C)c1=O` [Example 25, 2-((1r,4r)-4-(1,3,4-Oxadiazol-2-yl)cyclohexyl)-6-methoxy-N-(1-methyl-2-oxo-1,2-dihydropyridin-3-yl)-2H-indazole-5-carboxamide], the IC50 at IRAK4 [1] is 1.7 nM; at IRAK4 [2] it was 45 nM; at human cKit kinase, > 100000 nM.

Consider `COc1cc2nn([C@H]3CC[C@H](N(C)C(C)=O)C[C@H]3C)cc2cc1C(=O)Nc1cccn(C)c1=O` [Example 5, 6-Methoxy-N-(1-methyl-2-oxo-1,2-dihydropyridin-3-yl)-2-((1S,2R,4S)-2-methyl-4-(N-methylacetamido)cyclohexyl)-2H-indazole-5-carboxamide], for which the figures for the IC50 on IRAK4 [1], at IRAK4 [2] and at human cKit kinase were 0.8 nM, 24 nM and > 40000 nM, respectively.

Turning to `COc1cc2nn([C@H]3CC[C@H](n4ccnc4C(C)O)CC3)cc2cc1C(=O)Nc1cccn(C)c1=O` (single isomer, unassigned) [Example 29, 2-((1r,4r)-4-(2-(1-hydroxyethyl)-1H-imidazol-1-yl)cyclohexyl)-6-methoxy-N-(1-methyl-2-oxo-1,2-dihydropyridin-3-yl)-2H-indazole-5-carboxamide], the IC50 on IRAK4 [1] was 0.6 nM; on IRAK4 [2], 19 nM; at human cKit kinase, 8400 nM.

As for `COc1cc2nn([C@H]3CC[C@H](N(C)C(=O)[C@@H](C)O)CC3)cc2cc1C(=O)Nc1cccn(-c2cnn(C)n2)c1=O` [Example 17, 2-((1R,4r)-4-((R)-2-Hydroxy-N-methylpropanamido)cyclohexyl)-6-methoxy-N-(1-(2-methyl-2H-1,2,3-triazol-4-yl)-2-oxo-1,2-dihydropyridin-3-yl)-2H-indazole-5-carboxamide], the IC50 at IRAK4 [1] is 1.1 nM; against IRAK4 [2], 34 nM; on human cKit kinase it was > 100000 nM.

For `COc1cc2nn([C@H]3CC[C@H](n4ccnn4)CC3)cc2cc1C(=O)Nc1cccn(C)c1=O` [Example 27, 2-((1r,4r)-4-(1H-1,2,3-Triazol-1-yl)cyclohexyl)-6-methoxy-N-(1-methyl-2-oxo-1,2-dihydropyridin-3-yl)-2H-indazole-5-carboxamide], the IC50 is 1.5 nM at IRAK4 [1], 39 nM against IRAK4 [2] and > 100000 nM on human cKit kinase.

`COc1cc2nn([C@H]3CC[C@H](N(C)C(=O)[C@H](C)O)CC3)cc2cc1C(=O)Nc1cccn(C2CC2)c1=O` [Example 11, N-(1-Cyclopropyl-2-oxo-1,2-dihydropyridin-3-yl)-2-((1S,4r)-4-((S)-2-hydroxy-N-methylpropanamido)cyclohexyl)-6-methoxy-2H-indazole-5-carboxamide]: the IC50 on IRAK4 [1] is 0.9 nM; against IRAK4 [2], 23 nM; on human cKit kinase it was 36300 nM.

As for `COc1cc2nn([C@@H]3CC[C@@H](N(C)C(C)=O)C[C@@H]3C)cc2cc1C(=O)Nc1cccn(C)c1=O` [Example 4, 6-Methoxy-N-(1-methyl-2-oxo-1,2-dihydropyridin-3-yl)-2-((1R,2S,4R)-2-methyl-4-(N-methylacetamido)cyclohexyl)-2H-indazole-5-carboxamide], the IC50 worked out at 3.9 nM on IRAK4 [1], 67 nM on IRAK4 [2] and 18300 nM at human cKit kinase.

`COc1cc2nn([C@H]3CC[C@H](n4cc(C(C)(C)O)nn4)CC3)cc2cc1C(=O)Nc1cccn(C)c1=O` [Example 30, 2-((1r,4r)-4-(4-(2-Hydroxypropan-2-yl)-1H-1,2,3-triazol-1-yl)cyclohexyl)-6-methoxy-N-(1-methyl-2-oxo-1,2-dihydropyridin-3-yl)-2H-indazole-5-carboxamide]: the IC50 on IRAK4 [1] was 1 nM; against IRAK4 [2], 22 nM; at human cKit kinase, 6900 nM.

Turning to `COc1cc2nn([C@H]3CC[C@H](N4CCCC4=O)CC3)cc2cc1C(=O)Nc1cccn(C)c1=O` [Example 18, 6-Methoxy-N-(1-methyl-2-oxo-1,2-dihydropyridin-3-yl)-2-((1r,4r)-4-(2-oxopyrrolidin-1-yl)cyclohexyl)-2H-indazole-5-carboxamide], the IC50 at IRAK4 [1] was 1 nM; against IRAK4 [2] it was 32 nM; on human cKit kinase, 2400 nM.

Source of the values: patent US20240300923A1, “IRAK4 Inhibitors” (ASTRAZENECA AB, priority 2022, published 2024).
